Results: patent US20220317138A1, “METHODS FOR DETERMINING THE CONCENTRATION OF A CARBAPENEM ANTIBIOTIC IN A BIOLOGICAL SAMPLE” (priority 2019, published 2022)
Read-outs that look alike come from different tables or passages of the source.

What was measured:
[1] = tested on: AmpCHD beta-lactamase (class C); test: Screening of beta-lactamases by competition, nitrocefin as reporter substrate; format: biochemical
[2] = molecular target: Imp1 beta-lactamase (class B) (Serratia marcescens, UniProt P52699); format: biochemical; conditions: nitrocefin reporter
[3] = molecular target: P99 beta-lactamase (class C) (Enterobacter cloacae, UniProt P05364); format: biochemical; conditions: nitrocefin reporter
[4] = tested on: Imp4 beta-lactamase (class B); test: Screening of beta-lactamases by competition, nitrocefin as reporter substrate; format: biochemical
[5] = molecular target: beta-lactamase class D OXA-48 (Klebsiella pneumoniae, UniProt Q6XEC0); format: biochemical; conditions: for Accuracy <> (average) / [Meropenem] <> (average): average of 5 replicates
Source text: The specificity (or selectivity) of the method according to an embodiment of the invention is defined as the ability of the method to measure the concentration of a carbapenem antibiotic (such as meropenem) in presence of an excess of another beta-lactam antibiotic (second beta-lactam) currently used in ICUs (see Table 4).
To determine the specificity of the method illustrating the invention for carbapenem antibiotics, in particular meropenem, versus other beta-lactam antibiotics, stock-solutions of second beta-lactam antibiotics were prepared in water.
An excess of a second beta-lactam concentration of up to 10 times the concentration of meropenem was used.

[6] = tested on: Per2 beta-lactamase (class A); test: Screening of beta-lactamases by competition, nitrocefin as reporter substrate; format: biochemical
[7] = molecular target: Ndm1 beta-lactamase (class B) (Klebsiella pneumoniae, UniProt C7C422); format: biochemical; conditions: nitrocefin reporter
[8] = molecular target: CTXM15 beta-lactamase (class A) (Escherichia coli, UniProt Q9EXV5); format: biochemical; conditions: nitrocefin reporter
[9] = molecular target: Oxa48 beta-lactamase (class D) (Klebsiella pneumoniae, UniProt Q6XEC0); format: biochemical; conditions: nitrocefin reporter
[10] = Activity loss of the beta-lactamase in 1 h; format: physicochemical; conditions: enzyme activity
[11] = Meropenem 1.2 mg/L, second β-lactam 10.0 mg/L (8.4 times excess)
[12] = Meropenem 20.0 mg/L, second β-lactam 200.0 mg/L (10 times excess)

Chain of Imp1 beta-lactamase (class B) (P52699 19-246 limits assumed): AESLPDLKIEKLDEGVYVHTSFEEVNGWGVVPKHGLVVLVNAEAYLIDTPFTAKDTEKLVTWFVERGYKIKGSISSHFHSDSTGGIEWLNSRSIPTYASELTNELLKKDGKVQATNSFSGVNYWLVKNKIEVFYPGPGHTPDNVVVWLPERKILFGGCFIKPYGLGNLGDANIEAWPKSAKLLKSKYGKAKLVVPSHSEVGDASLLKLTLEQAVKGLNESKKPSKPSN
Chain of P99 beta-lactamase (class C) (P05364 21-381): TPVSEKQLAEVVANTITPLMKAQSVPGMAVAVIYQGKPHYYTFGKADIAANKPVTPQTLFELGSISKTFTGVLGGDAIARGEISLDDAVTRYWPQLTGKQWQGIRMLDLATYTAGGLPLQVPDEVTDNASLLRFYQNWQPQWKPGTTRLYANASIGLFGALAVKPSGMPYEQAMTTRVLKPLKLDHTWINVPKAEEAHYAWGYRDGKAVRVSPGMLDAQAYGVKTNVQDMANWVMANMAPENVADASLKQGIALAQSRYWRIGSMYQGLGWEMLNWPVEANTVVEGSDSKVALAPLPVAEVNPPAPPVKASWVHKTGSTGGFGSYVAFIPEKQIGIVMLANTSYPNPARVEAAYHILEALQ
Chain of CTXM15 beta-lactamase (class A) (Q9EXV5 29-291 limits assumed): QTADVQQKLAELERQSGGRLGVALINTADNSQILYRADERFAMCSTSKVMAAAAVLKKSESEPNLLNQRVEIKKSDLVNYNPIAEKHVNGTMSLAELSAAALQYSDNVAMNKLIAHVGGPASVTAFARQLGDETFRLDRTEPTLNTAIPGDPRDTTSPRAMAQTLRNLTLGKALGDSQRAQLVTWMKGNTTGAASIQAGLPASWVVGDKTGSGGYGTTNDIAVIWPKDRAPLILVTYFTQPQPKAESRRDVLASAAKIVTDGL

## CO/N=C(\C(=O)N[C@@H]1C(=O)N2C(C(=O)O)=C(COC(C)=O)CS[C@H]12)c1csc(N)n1 [Cefotaxim ® Sandoz]
[1]
  hydrolysis rate symbol, (Vmax/V0)-1: + (0.1-1)
[2]
  hydrolysis rate symbol, (Vmax/V0)-1: + (0.1-1)
[3]
  hydrolysis rate symbol, (Vmax/V0)-1: ++++ (>100)
[4]
  hydrolysis rate symbol, (Vmax/V0)-1: + (0.1-1)
[5]; [11]
  Accuracy <> (average): 111%
  [Meropenem] <> (average): 1.3 mg/L
  Accuracy Replicate 1: 109%
  [Meropenem] Replicate 1: 1.3 mg/L
  Accuracy Replicate 2: 116%
  [Meropenem] Replicate 2: 1.3 mg/L
  Accuracy Replicate 3: 107%
  [Meropenem] Replicate 3: 1.2 mg/L
  Accuracy Replicate 4: 110%
  [Meropenem] Replicate 4: 1.3 mg/L
  Accuracy Replicate 5: 115%
  [Meropenem] Replicate 5: 1.3 mg/L
[5]; [12]
  Accuracy <> (average): 92%
  [Meropenem] <> (average): 20.5 mg/L
  Accuracy Replicate 1: 93%
  [Meropenem] Replicate 1: 20.8 mg/L
  Accuracy Replicate 2: 94%
  [Meropenem] Replicate 2: 20.9 mg/L
  Accuracy Replicate 3: 91%
  [Meropenem] Replicate 3: 20.2 mg/L
  Accuracy Replicate 4: 91%
  [Meropenem] Replicate 4: 20.2 mg/L
  Accuracy Replicate 5: 91%
  [Meropenem] Replicate 5: 20.2 mg/L

## Cn1nnnc1SCC1=C(C(=O)O)N2C(=O)[C@@H](NC(=O)[C@H](O)c3ccccc3)[C@H]2SC1 [Cefamandole ®, Cefamandole]
[1]
  hydrolysis rate symbol, (Vmax/V0)-1: ++ (1-10)
[2]
  hydrolysis rate symbol, (Vmax/V0)-1: ++ (1-10)
[3]
  hydrolysis rate symbol, (Vmax/V0)-1: ++ (1-10)
[6]
  hydrolysis rate symbol, (Vmax/V0)-1: + (0.1-1)
[7]
  hydrolysis rate symbol, (Vmax/V0)-1: + (0.1-1)
[4]
  hydrolysis rate symbol, (Vmax/V0)-1: ++ (1-10)
[5]; [11]
  Accuracy <> (average): 115%
  [Meropenem] <> (average): 1.3 mg/L
  Accuracy Replicate 1: 112%
  [Meropenem] Replicate 1: 1.3 mg/L
  Accuracy Replicate 2: 116%
  [Meropenem] Replicate 2: 1.3 mg/L
  Accuracy Replicate 3: 114%
  [Meropenem] Replicate 3: 1.3 mg/L
  Accuracy Replicate 4: 123%
  [Meropenem] Replicate 4: 1.4 mg/L
  Accuracy Replicate 5: 112%
  [Meropenem] Replicate 5: 1.3 mg/L
[5]; [12]
  Accuracy <> (average): 99%
  [Meropenem] <> (average): 22.0 mg/L
  Accuracy Replicate 1: 97%
  [Meropenem] Replicate 1: 21.5 mg/L
  Accuracy Replicate 2: 98%
  [Meropenem] Replicate 2: 21.9 mg/L
  Accuracy Replicate 3: 99%
  [Meropenem] Replicate 3: 22.2 mg/L
  Accuracy Replicate 4: 105%
  [Meropenem] Replicate 4: 23.4 mg/L
  Accuracy Replicate 5: 94%
  [Meropenem] Replicate 5: 21.0 mg/L

## CO/N=C(\C(=O)N[C@@H]1C(=O)N2C(C(=O)O)=C(COC(N)=O)CS[C@H]12)c1ccco1 [Zinacef ®]
[1]
  hydrolysis rate symbol, (Vmax/V0)-1: + (0.1-1)
[2]
  hydrolysis rate symbol, (Vmax/V0)-1: + (0.1-1)
[3]
  hydrolysis rate symbol, (Vmax/V0)-1: ++++ (>100)
[5]; [11]
  Accuracy <> (average): 104%
  [Meropenem] <> (average): 1.2 mg/L
  Accuracy Replicate 1: 108%
  [Meropenem] Replicate 1: 1.3 mg/L
  Accuracy Replicate 2: 97%
  [Meropenem] Replicate 2: 1.1 mg/L
  Accuracy Replicate 3: 100%
  [Meropenem] Replicate 3: 1.2 mg/L
  Accuracy Replicate 4: 104%
  [Meropenem] Replicate 4: 1.2 mg/L
  Accuracy Replicate 5: 111%
  [Meropenem] Replicate 5: 1.3 mg/L
[5]; [12]
  Accuracy <> (average): 98%
  [Meropenem] <> (average): 21.9 mg/L
  Accuracy Replicate 1: 98%
  [Meropenem] Replicate 1: 21.8 mg/L
  Accuracy Replicate 2: 98%
  [Meropenem] Replicate 2: 21.9 mg/L
  Accuracy Replicate 3: 95%
  [Meropenem] Replicate 3: 21.2 mg/L
  Accuracy Replicate 4: 101%
  [Meropenem] Replicate 4: 22.4 mg/L
  Accuracy Replicate 5: 99%
  [Meropenem] Replicate 5: 22.0 mg/L

## CC1(C)S[C@@H]2[C@H](NC(=O)[C@H](C(=O)O)c3ccsc3)C(=O)N2[C@H]1C(=O)O [Ticarpen ®]
[1]
  hydrolysis rate symbol, (Vmax/V0)-1: + (0.1-1)
[3]
  hydrolysis rate symbol, (Vmax/V0)-1: ++++ (>100)
[6]
  hydrolysis rate symbol, (Vmax/V0)-1: ++ (1-10)
[5]; [11]
  Accuracy <> (average): 112%
  [Meropenem] <> (average): 1.3 mg/L
  Accuracy Replicate 1: 121%
  [Meropenem] Replicate 1: 1.4 mg/L
  Accuracy Replicate 2: 122%
  [Meropenem] Replicate 2: 1.4 mg/L
  Accuracy Replicate 3: 102%
  [Meropenem] Replicate 3: 1.2 mg/L
  Accuracy Replicate 4: 111%
  [Meropenem] Replicate 4: 1.3 mg/L
  Accuracy Replicate 5: 105%
  [Meropenem] Replicate 5: 1.2 mg/L
[5]; [12]
  Accuracy <> (average): 101%
  [Meropenem] <> (average): 22.6 mg/L
  Accuracy Replicate 1: 102%
  [Meropenem] Replicate 1: 22.7 mg/L
  Accuracy Replicate 2: 105%
  [Meropenem] Replicate 2: 23.4 mg/L
  Accuracy Replicate 3: 104%
  [Meropenem] Replicate 3: 23.1 mg/L
  Accuracy Replicate 4: 98%
  [Meropenem] Replicate 4: 21.9 mg/L
  Accuracy Replicate 5: 98%
  [Meropenem] Replicate 5: 21.9 mg/L
[8]
  hydrolysis rate symbol, (Vmax/V0)-1: ++ (1-10)
[9]
  hydrolysis rate symbol, (Vmax/V0)-1: + (0.1-1)

## CC1(C)S[C@@H]2[C@H](NC(=O)[C@H](N)c3ccccc3)C(=O)N2[C@H]1C(=O)O [Pentrexyl ®]
[1]
  hydrolysis rate symbol, (Vmax/V0)-1: +++ (10-100)
[3]
  hydrolysis rate symbol, (Vmax/V0)-1: ++ (1-10)
[6]
  hydrolysis rate symbol, (Vmax/V0)-1: + (0.1-1)
[5]; [11]
  Accuracy <> (average): 112%
  [Meropenem] <> (average): 1.3 mg/L
  Accuracy Replicate 1: 122%
  [Meropenem] Replicate 1: 1.4 mg/L
  Accuracy Replicate 2: 112%
  [Meropenem] Replicate 2: 1.3 mg/L
  Accuracy Replicate 3: 110%
  [Meropenem] Replicate 3: 1.3 mg/L
  Accuracy Replicate 4: 109%
  [Meropenem] Replicate 4: 1.3 mg/L
  Accuracy Replicate 5: 108%
  [Meropenem] Replicate 5: 1.3 mg/L
[5]; [12]
  Accuracy <> (average): 95%
  [Meropenem] <> (average): 21.1 mg/L
  Accuracy Replicate 1: 92%
  [Meropenem] Replicate 1: 20.5 mg/L
  Accuracy Replicate 2: 93%
  [Meropenem] Replicate 2: 20.8 mg/L
  Accuracy Replicate 3: 96%
  [Meropenem] Replicate 3: 21.4 mg/L
  Accuracy Replicate 4: 95%
  [Meropenem] Replicate 4: 21.3 mg/L
  Accuracy Replicate 5: 98%
  [Meropenem] Replicate 5: 21.8 mg/L

B1: Ndm1: class B beta-lactamase screened (protein, UniProt C7C422 29-270, looked up)
Metallo-beta-lactamase type 2: GEIRPTIGQQMETGDQRFGDLVFRQLAPNVWQHTSYLDMPGFGAVASNGLIVRDGGRVLVVDTAWTDDQTAQILNWIKQEINLPVALAVVTHAHQDKMGGMDALHAAGIATYANALSNQLAPQEGMVAAQHSLTFAANGWVEPATAPNFGPLKVFYPGPGHTSDNITVGIDGTDIAFGGCLIKDSKAKSLGNLGDADTEHYAASARAFGAAFPKASMIVMSHSAPDSRAAITHTARMADKLR
[10]
  Activity loss in 1 h: 0%

B2: Oxa48: beta-lactamase class D OXA-48 from Klebsiella pneumoniae, used as biosensor (protein, listed as Klebsiella pneumoniae)
chain: MRVLALSAVFLVASIIGMPAVAKEWQENKSWNAHFTEHKSQGVVVLWNENKQQGFTNNLKRANQAFLPASTFKIPNSLIALDLGVVKDEHQVFKWDGQTRDIATWNRDHNLITAMKYSVVPVYQEFARQIGEARMSKMLHAFDYGNEDISGNVDSFWLDGGIRISATEQISFLRKLYHNKLHVSERSQRIVKQAMLTEANGDYIIRAKTGYSTRIEPKIGWWVGWVELDDNVWFFAMNMDMPTSDGLGLRQAITKEVLKQEKIIP
modifications: PEPTIDE (1)..(22) SIGNAL PEPTIDE
notes: beta-lactamase class D OXA-48 from Klebsiella pneumoniae, used as biosensor
[10]
  Activity loss in 1 h: 0%

B3: Kpc2: class A beta-lactamase screened (protein, UniProt Q9F663 25-293, looked up)
Carbapenem-hydrolyzing …: LTNLVAEPFAKLEQDFGGSIGVYAMDTGSGATVSYRAEERFPLCSSFKGFLAAAVLARSQQQAGLLDTPIRYGKNALVPWSPISEKYLTTGMTVAELSAAAVQYSDNAAANLLLKELGGPAGLTAFMRSIGDTTFRLDRWELELNSAIPGDARDTSSPRAVTESLQKLTLGSALAAPQRQQFVDWLKGNTTGNHRIRAAVPADWAVGDKTGTCGVYGTANDYAVVWPTGRAPIVLAVYTRAPNKDDKHSEAVIAAAARLALEGLGVNGQ
[10]
  Activity loss in 1 h: 2%
